The assay concerns the target SARS-CoV-2 Papain-Like Protease (PLpro) (Severe acute respiratory syndrome coronavirus 2 (2019-nCoV) (SARS-CoV-2), UniProt P0DTD1). Kind of assay: biochemical. The conditions noted are these: read-out: PLpro IC50.
[1] abbreviates: PLpro enzymatic fluorescence assay, class symbols.
Where [2] appears, read: SARS-CoV-2 PLpro enzymatic fluorescence assay.

Where two headings read alike, the source gives them in different places.

As for `C=Cc1cc(C2(NC(=O)c3cc(OC[C@@H]4CCN4C)c(NS(C)(=O)=O)cc3C)CC2)c2cccnc2c1` [Compound 760, (S)-2-Methyl-5-((1-methylazetidin-2-yl)methoxy)-4-(methylsulfonamido)-N-(1-(7-vinylquinolin-5-yl)cyclopropyl)benzamide], the IC50 (in general, the concentration that gives 50% inhibition) under setting [1] is below 100 nM.
The same measure, in the same setting: the same measure for `COc1cc(C2(NC(=O)c3cc(OC[C@@H]4CCN4C)ccc3C)CC2)c2ncccc2c1` [Compound 761, (S)-N-(1-(6-Methoxyquinolin-8-yl)cyclopropyl)-2-methyl-5-((1-methylazetidin-2-yl)methoxy)benzamide]: 100 to 1000 nM; for `Cc1ccc(OC[C@@H]2CCN2C)cc1C(=O)NC1(c2cc(-c3ccc(C(C)O)s3)cc3ncccc23)CC1` (stereo partly drawn) [Compound 762, N-(1-(7-(5-(1-Hydroxyethyl)thiophen-2-yl)quinolin-5-yl)cyclopropyl)-2-methyl-5-(((S)-1-methylazetidin-2-yl)methoxy)benzamide]: below 100 nM; for `CNc1cc(C2(NC(=O)c3cc(OC[C@@H]4CCN4C)ccc3C)CC2)c2cccnc2c1` [Compound 763, (S)-2-Methyl-N-(1-(7-(methylamino)quinolin-5-yl)cyclopropyl)-5-((1-methylazetidin-2-yl)methoxy)benzamide]: below 100 nM.
The same measure, in the same setting: as for `Cc1ncc(-c2cc(C3(NC(=O)c4cc(OC[C@@H]5CCN5C)ccc4C)CC3)c3cccnc3c2)s1` [Compound 764, (S)-2-Methyl-5-((1-methylazetidin-2-yl)methoxy)-N-(1-(7-(2-methylthiazol-5-yl)quinolin-5-yl)cyclopropyl)benzamide], the figure is below 100 nM; as for `Cc1ccc(OC[C@@H]2CCN2C)cc1C(=O)NC1(c2cc(-c3ccc(C(=O)N4CCCC4)s3)cc3ncccc23)CC1` [Compound 767, (S)-2-Methyl-5-((1-methylazetidin-2-yl)methoxy)-N-(1-(7-(5-(pyrrolidine-1-carbonyl)thiophen-2-yl)quinolin-5-yl)cyclopropyl)benzamide], above 5000 nM.
The same measure, in the same setting: the same measure for `CCCN(CCC)c1cc(C2(NC(=O)c3cc(OC[C@@H]4CCN4C)ccc3C)CC2)c2cccnc2c1` [Compound 771, (S)—N-(1-(7-(Dipropylamino)quinolin-5-yl)cyclopropyl)-2-methyl-5-((1-methylazetidin-2-yl)methoxy)benzamide]: below 100 nM.
For `COc1cc(C2(NC(=O)c3cc(OC[C@H]4CC5(CC5)CN4C)ccc3C)CC2)c2cccnc2c1` [Compound 774, (R)—N-(1-(7-Methoxyquinolin-5-yl)cyclopropyl)-2-methyl-5-((5-methyl-5-azaspiro[2.4]heptan-6-yl)methoxy)benzamide], the IC50 under setting [1] was below 100 nM.
Take `COc1cc(C2(NC(=O)c3cc(OC[C@@H]4CC[C@@H]5CN(C(=O)OC(C)(C)C)CCN54)ccc3C)CC2)c2cccnc2c1` [Compound 775]: the IC50 under setting [1] was below 100 nM.
The same measure, in the same setting: the same measure for `COc1cc(C2(NC(=O)c3cc(O[C@H]4CC[C@@H]5CN(C(=O)OC(C)(C)C)CCN5C4)ccc3C)CC2)c2cccnc2c1` [Compound 776]: below 100 nM; for `Cc1ccc(OC[C@@H]2CCN2C)cc1C(=O)NC1(c2cc(-c3ccc(C(C)N4CCCC4)s3)cc3ncccc23)CC1` (stereo partly drawn) [Compound 780, 2-Methyl-5-(((S)-1-methylazetidin-2-yl)methoxy)-N-(1-(7-(5-(1-(pyrrolidin-1-yl)ethyl)thiophen-2-yl)quinolin-5-yl)cyclopropyl)benzamide]: below 100 nM; for `Cc1ccc(OC[C@@H]2CCN2C)cc1C(=O)NC1(c2cc(N(C)CC(F)(F)F)cc3ncccc23)CC1` [Compound 781, (S)-2-Methyl-N-(1-(7-(methyl(2,2,2-trifluoroethyl)amino)quinolin-5-yl)cyclopropyl)-5-((1-methylazetidin-2-yl)methoxy)benzamide]: below 100 nM.
On the same count and under the same terms, the same measure for `[2H]C([2H])([2H])N1CC[C@H]1COc1ccc(C)c(C(=O)NC2(c3cc(-c4cnc(C)o4)cc4ncccc34)CC2)c1` [Compound 782, (S)-2-Methyl-5-((1-(methyl-d3)azetidin-2-yl)methoxy)-N-(1-(7-(2-methyloxazol-5-yl)quinolin-5-yl)cyclopropyl)benzamide]: below 100 nM.
As for `COc1cc(C2(NC(=O)c3cc(O[C@H]4CC[C@@H]5CN(C)CCN5C4)ccc3C)CC2)c2cccnc2c1` [Compound 783], under setting [1], the half-maximal inhibitory concentration (IC50) was below 100 nM.
The same measure, in the same setting: the same measure for `COc1cc(C2(NC(=O)c3cc(OC[C@@H]4CC[C@@H]5CN(C)CCN54)ccc3C)CC2)c2cccnc2c1` [Compound 784]: below 100 nM.
As to `C=Cc1cc2c(c(C3(NC(=O)c4cc(OC[C@@H]5CCN5C)ccc4C)CC3)c1)CCCN2` [Compound 785, (S)-2-Methyl-5-((1-methylazetidin-2-yl)methoxy)-N-(1-(7-vinyl-1,2,3,4-tetrahydroquinolin-5-yl)cyclopropyl)benzamide], the IC50 under setting [1] is below 100 nM.
Turning to `Cc1ccc(OC[C@@H]2CCN2C)cc1C(=O)NC1(c2cc(NS(C)(=O)=O)cc3ncccc23)CC1` [Compound 786, (S)-2-Methyl-5-((1-methylazetidin-2-yl)methoxy)-N-(1-(7-(methylsulfonamido)quinolin-5-yl)cyclopropyl)benzamide], the half-inhibitory concentration (IC50) under setting [2] is below 100 nM.
`Cc1ccc(OC[C@@H]2CCN2C)cc1C(=O)NC1(c2cc(OCC(C)(C)C)cc3ncccc23)CC1` [Compound 787, (S)-2-Methyl-5-((1-methylazetidin-2-yl)methoxy)-N-(1-(7-(neopentyloxy)quinolin-5-yl)cyclopropyl)benzamide]: the IC50 under setting [1] was below 100 nM.
Consider `[2H]C([2H])([2H])N1CC[C@H]1COc1ccc(C)c(C(=O)NC2(c3cc(C=C)cc4ncccc34)CC2)c1` [Compound 788, (S)-2-Methyl-5-((1-(methyl-d3)azetidin-2-yl)methoxy)-N-(1-(7-vinylquinolin-5-yl)cyclopropyl)benzamide], for which, under setting [1], the IC50 was below 100 nM.
Same read-out and setting: the same measure for `COc1cc(C2(NC(=O)c3cc(OC[C@@H]4CC[C@@H]5CNCCN54)ccc3C)CC2)c2cccnc2c1` [Compound 789]: below 100 nM; for `COc1cc(C2(NC(=O)c3cc(O[C@H]4CC[C@@H]5CNCCN5C4)ccc3C)CC2)c2cccnc2c1` [Compound 790]: below 100 nM; for `COc1cc(C2(NC(=O)c3cc(OC[C@@H]4CCN4C)ccc3F)CC2)c2ccc(C)nc2c1` [Compound 791, (S)-2-Fluoro-N-(1-(7-methoxy-2-methylquinolin-5-yl)cyclopropyl)-5-((1-methylazetidin-2-yl)methoxy)benzamide]: 100 to 1000 nM.
Same read-out and setting: as for `Cc1ccc(OC[C@@H]2CCN2C)cc1C(=O)NC1(c2cc(-c3ccc(CN4CCOCC4)s3)cc3ncccc23)CC1` [Compound 793, (S)-2-Methyl-5-((1-methylazetidin-2-yl)methoxy)-N-(1-(7-(5-(morpholinomethyl)thiophen-2-yl)quinolin-5-yl)cyclopropyl)benzamide], the figure is below 100 nM; as for `[2H]C1([2H])C([2H])([2H])C1(NC(=O)c1cc(OC[C@@H]2CCN2C)ccc1C)c1cc(OC)cc2ncccc12` [Compound 794, (S)-N-(1-(7-Methoxyquinolin-5-yl)cyclopropyl-2,2,3,3-d4)-2-methyl-5-((1-methylazetidin-2-yl)methoxy)benzamide], below 100 nM; as for `Cc1ccc(OC[C@@H]2CCN2C)cc1C(=O)NC1(c2cc(OCC(F)(F)F)cc3ncccc23)CC1` [Compound 795, (S)-2-Methyl-5-((1-methylazetidin-2-yl)methoxy)-N-(1-(7-(2,2,2-trifluoroethoxy)quinolin-5-yl)cyclopropyl)benzamide], below 100 nM.
The same measure, in the same setting: the same measure for `C=Cc1cc2c(c(C3(NC(=O)c4cc(OC[C@@H]5CCN5C)ccc4C)CC3)c1)CCCN2C` [Compound 796, (S)-2-Methyl-N-(1-(1-methyl-7-vinyl-1,2,3,4-tetrahydroquinolin-5-yl)cyclopropyl)-5-((1-methylazetidin-2-yl)methoxy)benzamide]: below 100 nM.
As to `[2H]C([2H])(Oc1ccc(C)c(C(=O)NC2(c3cc(OC)cc4ncccc34)CC2)c1)[C@@H]1CCN1C` [Compound 797, (S)-N-(1-(7-Methoxyquinolin-5-yl)cyclopropyl)-2-methyl-5-((1-methylazetidin-2-yl)methoxy-d2)benzamide], the IC50 under setting [1] was below 100 nM.
Still for that read-out and setting: as for `COc1cc(C2(NC(=O)c3cc(OCC4Cc5ccccc5CN4C)ccc3C)CC2)c2cccnc2c1` (stereo not drawn) [Compound 799, N-(1-(7-Methoxyquinolin-5-yl)cyclopropyl)-2-methyl-5-((2-methyl-1,2,3,4-tetrahydroisoquinolin-3-yl)methoxy)benzamide], the figure is below 100 nM.
As to `C=Cc1cc(C2(NC(=O)c3cc(OC[C@@H]4CCN4C)c(F)cc3C)CC2)c2cccnc2c1` [Compound 800, (S)-4-Fluoro-2-methyl-5-((1-methylazetidin-2-yl)methoxy)-N-(1-(7-vinylquinolin-5-yl)cyclopropyl)benzamide], the IC50 under setting [2] was below 100 nM.
Take `COc1cc(C2(NC(=O)c3cc(OCC4c5ccccc5CCN4C)ccc3C)CC2)c2cccnc2c1` (stereo not drawn) [Compound 801, N-(1-(7-Methoxyquinolin-5-yl)cyclopropyl)-2-methyl-5-((2-methyl-1,2,3,4-tetrahydroisoquinolin-1-yl)methoxy)benzamide]: the IC50 under setting [1] was below 100 nM.
Take `Cc1cc(C2(NC(=O)c3cc(OC[C@@H]4CCN4C)ccc3C)CC2)c2ccc(C)nc2c1` [Compound 802, (S)-N-(1-(2,7-Dimethylquinolin-5-yl)cyclopropyl)-2-methyl-5-((1-methylazetidin-2-yl)methoxy)benzamide]: the IC50 under setting [1] is below 100 nM.
Same read-out and setting: as for `Cc1ccc(OC[C@@H]2CCN2C)cc1C(=O)NC1(c2cc(C#CC(F)(F)F)cc3ncccc23)CC1` [Compound 803, (S)-2-Methyl-5-((1-methylazetidin-2-yl)methoxy)-N-(1-(7-(3,3,3-trifluoroprop-1-yn-1-yl)quinolin-5-yl)cyclopropyl)benzamide], the figure is below 100 nM; as for `[2H]C1([2H])C([2H])([2H])C1(NC(=O)c1cc(OC[C@@H]2CCN2C)ccc1C)c1cc(OC)cc2nc(C)ccc12` [Compound 804, (S)—N-(1-(7-Methoxy-2-methylquinolin-5-yl)cyclopropyl-2,2,3,3-d)-2-methyl-5-((1-methylazetidin-2-yl)methoxy)benzamide], below 100 nM.

For the origin of these results see patent publication US20250025443A1, “COMPOUNDS AND METHODS FOR TREATING CORONA VIRUSES” (CLEAR CREEK BIO, INC., priority 2021, published 2025).
